Test results taken from the supplement of paper PMC10307832.

How the values were obtained:
Assay in all cases: relative viability (nuclei count vs DMSO), 5 days (fraction); higher = more cells survive
kb NB 142-70 + OSI-027 = compound: C1CSC2=C(C(=O)N1)SC3=C2C=C(C=C3)O [kb NB 142-70] + COc1cccc2cc(-c3nc([C@H]4CC[C@H](C(=O)O)CC4)n4ncnc(N)c34)[nH]c12 [OSI-027] (partner 0.5 µM)
How it was run: (§1)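 Relative viability was taken as the ratio of nuclei in treated wells to nuclei in vehicle wells. Lung cancer cell lines in 1536-well plates received compounds by pin tool one day after seeding, either one drug alone or a fixed anchor-drug dose plus five library-drug doses (not always all listed) in √10 steps. Nuclei were counted on 4× images after 5 days of treatment, and values are medians of duplicate plates.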

[1] = compound: NCC(=O)Nc1ccc(-n2nc(C(F)(F)F)cc2-c2ccc3c(ccc4ccccc43)c2)cc1 + CCNC(=O)c1noc(-c2cc(C(C)C)c(O)cc2O)c1-c1ccc(CN2CCOCC2)cc1 [Luminespib] (partner 0.01 µM)
How it was run: as §1

[2] = compound: NCC(=O)Nc1ccc(-n2nc(C(F)(F)F)cc2-c2ccc3c(ccc4ccccc43)c2)cc1 + Cc1nc(NC(=O)N2CCC[C@H]2C(N)=O)sc1-c1ccnc(C(C)(C)C(F)(F)F)c1 [Alpelisib] (partner 2 µM)
How it was run: as §1

[3] = compound: C1CSC2=C(C(=O)N1)SC3=C2C=C(C=C3)O [kb NB 142-70] + N=C(N)NC(=N)NCCc1ccccc1 [Phenformin] (partner 250 µM)
How it was run: as §1

kb NB 142-70 + Lapatinib = compound: C1CSC2=C(C(=O)N1)SC3=C2C=C(C=C3)O [kb NB 142-70] + CS(=O)(=O)CCNCc1ccc(-c2ccc3ncnc(Nc4ccc(OCc5cccc(F)c5)c(Cl)c4)c3c2)o1 [Lapatinib] (partner 2 µM)
How it was run: as §1

Cell Line | relative viability (kb NB 142-70 + OSI-027; first compound 0.1 µM) | relative viability (kb NB 142-70 + OSI-027; first compound 1 µM) | relative viability (kb NB 142-70 + OSI-027; first compound 3.162 µM) | relative viability ([1]; first compound 0.02 µM) | relative viability ([1]; first compound 0.06325 µM) | relative viability ([1]; first compound 0.2 µM) | relative viability ([1]; first compound 0.6325 µM) | relative viability ([1]; first compound 2 µM) | relative viability ([2]; first compound 0.02 µM) | relative viability ([2]; first compound 0.06325 µM) | relative viability ([2]; first compound 0.2 µM) | relative viability ([2]; first compound 0.6325 µM) | relative viability ([2]; first compound 2 µM) | relative viability ([3]; first compound 0.1 µM) | relative viability ([3]; first compound 1 µM) | relative viability ([3]; first compound 3.162 µM) | relative viability (kb NB 142-70 + Lapatinib; first compound 0.1 µM) | relative viability (kb NB 142-70 + Lapatinib; first compound 1 µM) | relative viability (kb NB 142-70 + Lapatinib; first compound 3.162 µM)
NCI-H1666 | 0.786 | 0.875 | 0.875 | 0.982 | 1.06 | 0.925 | 1.07 | 0.93 | 1.07 | 0.869 | 0.852 | 0.937 | 1.09 | 0.558 | 0.526 | 0.467 | 0.637 | 0.598 | 0.335
LC-2-ad | 0.779 | 0.842 | 0.699 | 1.01 | 1.05 | 1.12 | 1.11 | 1.14 | 1.07 | 0.947 | 0.945 | 0.883 | 0.959 | 0.618 | 0.536 | 0.458 | 0.96 | 0.885 | 0.937
SK-LU-1 | 0.355 | 0.305 | 0.219 | 0.208 | 0.182 | 0.193 | 0.206 | 0.18 | 0.913 | 1.08 | 1.3 | 0.891 | 0.977 | 0.546 | 0.451 | 0.265 | 0.865 | 0.802 | 0.527
COR-L 105 | 0.821 | 0.734 | 0.674 | 0.915 | 0.78 | 1.01 | 0.704 | 1.15 | 0.911 | 1.12 | 1.26 | 0.896 | 0.969 | 0.428 | 0.534 | 0.486 | 0.382 | 0.427 | 0.361
NCI-H1975 | 0.808 | 0.741 | 0.597 | 0.125 | 0.29 | 0.236 | 0.278 | 0.247 | 0.668 | 0.64 | 0.652 | 0.677 | 0.693 | 0.394 | 0.366 | 0.235 | 0.894 | 0.881 | 0.433
NCI-H1993 | 0.51 | 0.578 | 0.479 | 0.887 | 0.88 | 0.901 | 0.784 | 0.957 | 0.731 | 0.654 | 0.612 | 0.621 | 0.762 | 0.567 | 0.488 | 0.549 | 0.71 | 0.765 | 0.856
RERF-LC-KJ | 0.566 | 0.643 | 0.593 | 1.32 | 1.29 | 1.27 | 1.19 | 1.1 | 0.848 | 0.899 | 0.734 | 0.883 | 0.937 | 0.409 | 0.463 | 0.445 | 0.956 | 0.88 | 0.942
NCI-H23 | 0.632 | 0.572 | 0.412 | – | 0.217 | 0.216 | 0.222 | 0.234 | 0.59 | 0.774 | 0.865 | 0.806 | 0.725 | 0.794 | 0.732 | 0.53 | 1.23 | 0.872 | 0.413
EMC-BAC-2 | 0.361 | 0.422 | 0.338 | 1.11 | 1.23 | 1.18 | 1.17 | 1.18 | 0.742 | 0.75 | 0.764 | 0.772 | 0.715 | 0.524 | 0.501 | 0.38 | 0.942 | 0.898 | 0.743
NCI-H2405 | 0.652 | 0.615 | 0.546 | 0.686 | 0.74 | 0.606 | 0.732 | 0.746 | 0.851 | 0.826 | 0.831 | 0.782 | 0.923 | 0.397 | 0.375 | 0.356 | 1.11 | 1.07 | 0.896
NCI-H358 | 0.669 | 0.464 | 0.105 | 0.316 | 0.54 | 0.37 | 0.323 | 0.259 | 0.82 | 0.881 | 0.931 | 0.821 | 0.939 | 0.279 | 0.187 | 0.0752 | 0.45 | 0.396 | 0.161
NCI-H1944 | 0.386 | 0.443 | 0.426 | 0.667 | 0.71 | 0.787 | 0.715 | 0.75 | 0.865 | 0.833 | 0.793 | 0.818 | 0.87 | 0.202 | 0.205 | 0.2 | 0.865 | 0.827 | 0.936
EPLC-272H | 0.278 | 0.243 | 0.187 | 0.265 | 0.264 | 0.367 | 0.186 | 0.35 | 1.06 | 0.916 | 0.917 | 1.05 | 0.936 | 0.38 | 0.267 | 0.189 | 0.937 | 0.817 | 0.649
NCI-H1915 | 0.648 | 0.619 | 0.396 | 0.817 | 0.756 | 0.779 | 0.815 | 0.769 | 1.08 | 1.08 | 1.13 | 1.02 | 1.04 | 0.365 | 0.359 | 0.258 | 1.05 | 1 | 0.845
NCI-H596 | 0.931 | 0.773 | 0.509 | 1.14 | 1.02 | 1.06 | 0.99 | 0.978 | 0.63 | 0.5 | 0.483 | 0.553 | 0.505 | 0.888 | 0.77 | 0.822 | 1.02 | 0.931 | 0.884
NCI-H322M | 0.489 | 0.551 | 0.498 | 0.919 | 0.946 | 0.895 | 0.917 | 0.855 | 0.756 | 0.772 | 0.824 | 0.657 | 0.831 | 0.755 | 0.795 | 0.86 | 0.568 | 0.646 | 0.617
NCI-H2228 | 0.575 | 0.483 | 0.317 | 0.144 | 0.16 | 0.177 | 0.154 | 0.16 | 0.785 | 0.84 | 0.669 | 0.689 | 0.921 | 0.263 | 0.317 | 0.178 | 1.07 | 1.02 | 0.323
